Source: publication PMC8136874, “The entry reaction of the plant shikimate pathway is subjected to highly complex metabolite-mediated regulation” (The Plant Cell, 2021)
Read-outs that look alike come from different tables or passages of the source.

What was measured:
AthDHS1 = target: T1, AthDHS1 (Arabidopsis thaliana, UniProt P29976); assay: DHS enzymatic activity assay with recombinant AthDHS1; assay type: biochemical; conditions: 1 mM effector
T1 construct: AthDHS1; residues 49–525; hexa-histidine; made in house; host or cells: E. coli Rosetta2 (DE3), pET28a
Description: (§1) Unless otherwise noted, DHS enzymatic activity was monitored as previously described ([Liu et al., 2008]), with several optimizations for high-throughput assays with eight-strip PCR tubes and a thermal cycler. The enzyme solution (7.7 µL) containing 50 mM HEPES (pH 7.4) was preincubated with an effector molecule(s) at room temperature for 10 min. For assays using recombinant protein and enzyme fraction isolated from plant leaves, 0.01–0.05 µg and approximately 50 µg of proteins were used, respectively. After adding 0.5 µL of 0.1 M DTT, the samples were further incubated at room temperature for 15 min. […] The enzyme reaction was started by adding 6.8 µL of the substrate solution, then incubated at 37°C for 20 min, and terminated by adding 30 µL of 0.6 M trichloroacetic acid. After brief centrifugation, 5 µL of 200 mM NaIO4 (sodium meta-periodate) in 9 N H3PO4 was added to oxidize the enzymatic product and incubate at 25°C for 20 min. To stop the oxidation reaction, 20 µL of 0.75 M NaAsO2 (sodium arsenite), which was dissolved in 0.5 M Na2SO4 and 0.05 M H2SO4, was immediately mixed. After 5 min of incubation at room temperature, one-third of the sample solution was transferred to a new tube to be mixed with 50 µL of 40 mM thiobarbituric acid and incubated at 99°C for 15 min in a thermal cycler. Developed pink chromophore was extracted by putting the final solutions with 600 µL of cyclohexanone in eight-strip solvent-resistant plastic tubes, mixing vigorously and centrifuging them at 4,500 × g for 3 min to separate water- and cyclohexanone-based layers. The absorbance of the pink supernatant was read at 549 nm with the microplate reader (Infinite 200 PRO, TECAN, Männedorf, Switzerland) to calculate DAHP production with the molar extinction coefficient at 549 nm (ε = 549 nm) of 4.5 × 10^4/M/cm. Reaction mixtures with boiled enzyme or without any substrates were run in parallel and used as negative controls to estimate the background signal for recombinant enzymes or enzymatic fraction from plant tissues, respectively.
(§2) For determination of kinetic parameters, the data of enzymatic activities measured in the presence of various concentration of substrates were calculated with the Michaelis–Menten equation in Graphpad Prism 6 (GraphPad Software, San Diego, CA, USA).

[1] = test system: root growth of Arabidopsis Col-0 and dhs mutants; assay: Chemical feeding experiment, root length of 10-day-old seedlings; assay type: in vivo, Arabidopsis thaliana; conditions: for IC50: Arabidopsis thaliana
Description: (§3) Chemical feeding experiments were carried out as described previously ([de Oliveira et al., 2019]) with some modifications. Seedlings were grown on agar plates containing 0.5 MS with 1% sucrose, 0.8% agar, and 2.5 mM MES at pH 5.7 in the growth chamber where we grew other plants in soil. AAAs and/or shikimate were added to autoclaved media after cooling down to temperatures below 55°C. Plants were grown on the same plate side by side to minimize environmental effects, and multiple plates were prepared to obtain replications. Root lengths of 10-day-old seedlings were quantified by ImageJ.

[2] = test system: DHS activities from pea (Pisum sativum) leaves; set-up: method as in Reinink and Borstlap, 1982; conditions: 1 mM; ref Reinink and Borstlap, 1982; cited from earlier work
[3] = test system: AthDHS1 and AthDHS2 mixtures; assay: DHS assay using mixtures of AthDHS1 and AthDHS2 recombinant enzymes; assay type: biochemical, Arabidopsis thaliana; conditions: 1 mM effector; molar ratios 0, 0.25, 0.5, 0.75, 1
Description: Next, we thought that the presence of non-inhibited DHS isoforms (e.g. AthDHS1) may affect the AAA sensitivity of AthDHS2, given that AthDHSs are known to function as tetrameric or dimeric forms ([Suzich et al., 1985]; [Pinto et al., 1986]; [Webby et al., 2005]). To test this, the recombinant enzymes of AAA non-inhibited AthDHS1 and AAA-inhibited AthDHS2 were mixed with different ratios (0, 0.25, 0.5, 0.75, and 1) and DHS activity assays were conducted with different inhibitors. Based on the kinetic parameters and the regulatory behaviors of individual AthDHSs, the expected level of DHS activity was first calculated and plotted (dotted lines in Figure 5, D, see the “Materials and methods” section). […] Similar results were obtained for the AthDHS2 and AthDHS3 mixture (Figure 5, E).
Unless otherwise noted, DHS enzymatic activity was monitored as previously described ([Liu et al., 2008]), with several optimizations for high-throughput assays with eight-strip PCR tubes and a thermal cycler. The enzyme solution (7.7 µL) containing 50 mM HEPES (pH 7.4) was preincubated with an effector molecule(s) at room temperature for 10 min. For assays using recombinant protein and enzyme fraction isolated from plant leaves, 0.01–0.05 µg and approximately 50 µg of proteins were used, respectively. After adding 0.5 µL of 0.1 M DTT, the samples were further incubated at room temperature for 15 min. […] The enzyme reaction was started by adding 6.8 µL of the substrate solution, then incubated at 37°C for 20 min, and terminated by adding 30 µL of 0.6 M trichloroacetic acid. After brief centrifugation, 5 µL of 200 mM NaIO4 (sodium meta-periodate) in 9 N H3PO4 was added to oxidize the enzymatic product and incubate at 25°C for 20 min. […] The absorbance of the pink supernatant was read at 549 nm with the microplate reader (Infinite 200 PRO, TECAN, Männedorf, Switzerland) to calculate DAHP production with the molar extinction coefficient at 549 nm (ε = 549 nm) of 4.5 × 10^4/M/cm. […]

[4] = test system: shikimate accumulation in Col-0 and dhs mutants; assay: Shikimate content with and without Tyr and/or glyphosate treatment; assay type: in vivo, Arabidopsis thaliana; conditions: 300 µM, without glyphosate; all genotypes except dhs1
Description: Approximately 50–80 mg of fully expanded mature leaves were pooled from multiple plants at the same developmental stages and ground in 800 µL of extraction buffer (v/v 2:1 of methanol and chloroform with 2 µg/mL isovitexin [Millipore-Sigma], 100 µM norvaline [Thermo Fisher Scientific], and 1.25 µg/mL Tocol [Matreya LLC, State College, PA, USA] for internal standards for soluble metabolite analysis by LC–MS and GC–MS and tocopherol analysis by GC–MS, respectively), using 1600 MiniG Tissue Homogenizer (SPEX SamplePrep, Metuchen, USA) and 3-mm glass beads. After adding 600 µL of H2O and then 250 µL of chloroform, polar phase containing amino acids, and non‐polar phase containing tocopherols were separated by centrifugation, dried in new tubes. To detect Trp and AAA-derived metabolites, LC–MS analysis was carried out as previous described with some modification ([Alseekh et al., 2015]). The dried metabolites were resuspended in 70 µL of 80% LC–MS-grade methanol. Two microliters of the sample was injected onto a HSS T3 C18 reversed phase column (100 × 2.1 mm i.d., 1.8-μm particle size; Waters, Milford, CT, USA) and eluted using a 20-min gradient comprising 0.1% formic acid in LC–MS-grade water (solvent A) and 0.1% formic acid in LC–MS-grade acetonitrile (solvent B) at a flow rate of 0.4 mL/min and column temperature of 40°C. The binary linear gradient with following ratios of solvent B was used: 0–1 min, 1%; 1–13 min, 1%–35%; 13–14.5 min, 35%–70%; 14.5–15.5 min, 70%–99%, 15.5–17 min, 99%; 17–17.5 min, 99%–[…]; 17.5–20 min, 1%. The spectra were recorded using full scan mode of negative ion detection, covering a mass range from m/z 100 to 1,500. The resolution was set to 25,000 and the maximum scan time was set to 250 ms. The sheath gas was set to a value of 60, while the auxiliary gas was set to 35. The transfer capillary temperature was set to 150°C, while the heater temperature was adjusted to 300°C. The spray voltage was fixed at 3 kV, with a capillary voltage and a skimmer voltage of 25 and 15 V, respectively. Retention times, MS spectra, and associated peak intensities were extracted from the raw files using the Xcalibur software (Thermo Fisher Scientific). […] For anthocyanin quantification, the polar phase isolated for amino acid analysis was diluted 10 times with water in a new tube. […] Shikimate level was spectrometrically determined based on previous literatures ([Shaner et al., 2005]; [Sharkhuu et al., 2014]). […] After stopping the reaction by adding 100 µL of a termination solution containing 0.6 N sodium hydroxide and 0.22 M sodium sulfite, the absorption at 380 nm was immediately measured with the microplate reader. Shikimate concentration was determined by comparing with a dilution series of the shikimate standards.

[5] = test system: Arabidopsis Col-0 and dhs mutants; assay type: in vivo, Arabidopsis thaliana; conditions: 300 µM, 14 days after germination
Description: as §3

AthDHS2 = target: T2, AthDHS2 (Arabidopsis thaliana, UniProt Q00218); assay: DHS enzymatic activity assay with recombinant AthDHS2; assay type: biochemical; conditions: 1 mM effector
T2 construct: AthDHS2; residues 34–507; hexa-histidine; made in house; host or cells: E. coli Rosetta2 (DE3), pET28a

[6] = test system: DHS activity from mung bean (Vigna radiata) seedlings; set-up: method as in Rubin and Jensen, 1985; conditions: ref Rubin and Jensen, 1985; cited from earlier work
AthDHS3 = AthDHS3 (Arabidopsis thaliana, UniProt Q9SK84); assay: DHS enzymatic activity assay with recombinant AthDHS3; assay type: biochemical; conditions: 1 mM effector
Description: as §1, §2

[7] = test system: DHS activity from spinach (Spinacia oleracea) leaves; set-up: method as in Doong et al., 1993; conditions: ref Doong et al., 1993; cited from earlier work

T1 sequence (P29976 49-525): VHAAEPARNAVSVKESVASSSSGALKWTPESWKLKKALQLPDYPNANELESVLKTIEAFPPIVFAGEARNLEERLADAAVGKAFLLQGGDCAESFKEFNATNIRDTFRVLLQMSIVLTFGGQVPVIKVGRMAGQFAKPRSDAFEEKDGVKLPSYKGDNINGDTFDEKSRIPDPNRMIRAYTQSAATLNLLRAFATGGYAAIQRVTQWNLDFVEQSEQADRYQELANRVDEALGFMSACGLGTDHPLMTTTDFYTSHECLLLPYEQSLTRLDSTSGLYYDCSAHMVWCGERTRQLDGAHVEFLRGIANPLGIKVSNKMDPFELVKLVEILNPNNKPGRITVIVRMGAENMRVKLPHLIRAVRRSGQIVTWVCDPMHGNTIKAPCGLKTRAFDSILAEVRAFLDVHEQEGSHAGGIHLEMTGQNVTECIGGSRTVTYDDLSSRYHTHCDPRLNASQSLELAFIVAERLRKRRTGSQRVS
T2 sequence (Q00218 34-507): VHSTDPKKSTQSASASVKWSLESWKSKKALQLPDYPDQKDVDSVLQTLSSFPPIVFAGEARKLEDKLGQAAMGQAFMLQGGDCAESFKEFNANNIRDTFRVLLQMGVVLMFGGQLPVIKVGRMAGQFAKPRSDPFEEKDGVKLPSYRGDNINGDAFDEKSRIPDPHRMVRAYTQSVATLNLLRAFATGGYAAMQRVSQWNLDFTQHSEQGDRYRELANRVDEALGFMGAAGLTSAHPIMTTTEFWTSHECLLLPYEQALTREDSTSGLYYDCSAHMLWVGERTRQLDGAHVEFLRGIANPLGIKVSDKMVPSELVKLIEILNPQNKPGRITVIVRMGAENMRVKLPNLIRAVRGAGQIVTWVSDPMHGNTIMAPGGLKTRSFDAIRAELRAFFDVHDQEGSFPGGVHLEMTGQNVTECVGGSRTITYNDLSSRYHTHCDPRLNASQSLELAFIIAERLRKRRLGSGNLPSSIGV
Chain of AthDHS3 (Q9SK84 entry or part of it): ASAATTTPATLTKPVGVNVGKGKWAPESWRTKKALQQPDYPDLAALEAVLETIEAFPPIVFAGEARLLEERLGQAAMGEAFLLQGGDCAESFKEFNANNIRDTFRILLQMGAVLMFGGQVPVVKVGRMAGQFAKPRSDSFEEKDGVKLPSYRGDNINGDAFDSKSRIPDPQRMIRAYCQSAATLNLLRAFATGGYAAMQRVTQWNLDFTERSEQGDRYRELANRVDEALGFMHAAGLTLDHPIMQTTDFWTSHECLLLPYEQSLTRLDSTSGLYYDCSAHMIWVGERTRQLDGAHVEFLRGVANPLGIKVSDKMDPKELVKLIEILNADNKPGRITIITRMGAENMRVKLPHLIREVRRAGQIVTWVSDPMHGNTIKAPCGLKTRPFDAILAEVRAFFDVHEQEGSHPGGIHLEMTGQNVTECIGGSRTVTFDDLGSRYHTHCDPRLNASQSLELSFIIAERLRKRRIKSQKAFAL

Compound	effect on AthDHS1 activity (in words) (AthDHS1)	IC50 ([1]; read-out: IC50 of root growth impairment)	IC50 ([1]; read-out: concentration giving 50% growth inhibition)	concentration that specifically impaired root growth ([1]; dhs1 mutant)	effect of the added compound on Trp-mediated root growth inhibition of dhs3 ([1]; media with 300 µM Trp, AAAs added at 300 µM, shikimate at 500 µM)	inhibition of DHS activity [2]	observed DHS activity of the enzyme mixtures versus theoretically calculated activity [3]	effect on shikimate level [4]	phenotype of newly growing leaves ([5]; Col-0 and dhs3)	shoot phenotype ([5]; dhs1)	cup-shaped leaf phenotype ([5]; dhs2)	inhibition of AthDHS2 activity (AthDHS2)	concentration beyond which DHS activity is inhibited [6]	effect on AthDHS3 activity (in words) (AthDHS3)	concentration beyond which DHS activity is inhibited [7]
N[C@@H](Cc1ccc(O)cc1)C(=O)O [Tyr, L-tyrosine]	significantly activated	79 µM	> 300 µM	≥ 100 µM	not recovered	60%	significantly higher than theoretically calculated activities	did not alter the shikimate level	cup-like shape	very small and pale	did not appear	–	–	–	–
N[C@@H](CC1(C(=O)O)C=CC(O)C=C1)C(=O)O (stereo partly shown) [arogenate]	did not significantly affect	–	–	–	–	–	–	–	–	–	–	~75%	> 0.4 mM	did not significantly affect	> 1 mM
